In one experiment the test system is N-RasMA93 cells. In words: directional migration of N-RasMA93 leukemia cells towards SDF-1α (transwell). It counts as cell-based, human. To be noted: in vitro. How it is done:
FIG. 5B. Migration of leukemia cells towards SDF-1α without or with CASIN pre-treatment at doses of 5 and 10 μM was determined by transwell assays.
Like normal HSCs, their malignant counterpart, leukemia initiating cells (LICs) reside in their BM niches that provide the structural and physiological conditions supporting their survival and growth. LICs are resistant to traditional chemotherapy by interacting with their BM microenvironment, which are the culprits of leukemia relapses after a period of remission induced by chemotherapy. Detachment of LICs from their niche by CASIN would be a valuable supplementary therapy to the traditional cancer therapies (e.g., chemotherapies). First of all, in vitro effects of CASIN were examined in adhesion, migration, and F-actin polymerization of LICs, each of which is independently important for the retention of LICs in BM niches. Retroviral transduction of an MLL-AF9 fusion cDNA together with N-Ras oncogene into normal human CD34^+cord blood cells led to the establishment of cultures of N-Ras-MA93 cells that can initiate acute myeloid leukemia in NOG mice. […] To address it, a human AML model was set up by transplanting N-RasMA93 cells into NOG mice intravenously.

The subject of another experiment is leukemia cells. In words: apoptosis of leukemia cells by FACS analysis. To be noted: after 24 hrs' CASIN pre-treatment, FIG. 5D. It counts as cell-based, human.
The next experiment addresses T1, Rac1 (Mus musculus, UniProt P63001).
T1 construct: endogenous in cells; host or cells: murine LDBM cells
Put plainly: Rho GTPase effector pull-down in murine LDBM cells, Rac1. To be noted: parallel pull-down assay. The experiment is classed as cell-based. How it is done: To analyze the effects of CASIN on the formation of active GTP-bound Cdc42, RhoA, and Rac1, effector pulldown assays were carried out as described previously. Cdc42GAP^−/− MEF, LDBM, CD34^+ hCB cells were treated with CASIN at doses of 5-20 μM in parallel with vehicle control for 2 hrs after overnight starvation, and stimulated with cytokines subsequently. And then cells were lysed in a buffer containing 20 mM Tris-HCL (pH 7.6), 100 mM NaCl, 1% Triton X-100, 10 mM MgCl2, 2 mM NaF, and Protease inhibitor cocktail (Roche Diagnostics). Lysates were incubated with GST-P21-binding domain of PAK1 for RAC1-GTP and Cdc42-GTP, and GST-RBD domain of Rhotekin for RhoA-GTP respectively. Both bound- and unbound-form of Rho GTPases were probed by immunoblotting with antibodies specific for Rac1 (BD biosciences), Cdc42 (BD biosciences), and RhoA (cell signaling).

For a further experiment, the system named is Fancc−/− mice. Put plainly: Example 10 HSC/P mobilization in Fancc−/− mice. To be noted: mouse, in vivo. How it is done:
The effects of CASIN on HSC/P mobilization in Fancc−/− mice are investigated under four groups in parallel with WT mice: (1) Control group; (2) G-CSF group: 2.5 μg G-CSF per mouse, twice a day for 4 d120; (3) CASIN group: 2.5 mg/Kg; (4) combination of CASIN and G-CSF: one injection of CASIN is given 40 h before the end of 4 d G-CSF administration.
Fancc−/− or WT mice are mobilized with regimens corresponding to the four experimental groups. Then PB are harvested by cardiac puncture. Phenotypically, the absolute number and percentage of HSC/Ps in PB after mobilization are determined as those of LSK (Lin− Sca+ c-Kit+) cells by flow cytometry. Functionally, CFU-C assay is performed in triplicate for each mouse by using PB of mice from different experimental groups, and CFU-GM, CFU-GEMM, BFU-E, and CFU-E are distinguished by morphology and using cytokine combinations. Furthermore, the long-term repopulation capacity of the mobilized HSCs is evaluated using a competitive repopulating assay and subsequent secondary transplantation as discussed above.

The next experiment relates to LT-HSC. In words: serial transplantation of CASIN-mobilized PB into NOD/SCID mice. The experiment is classed as in vivo. How it is done: Whether CASIN administration can induce mobilization of HSC/Ps to peripheral blood of C57Bl/6 mice, mimicking the phenotype observed in Cdc42 conditional knockout mice, was evaluated. First of all, mobilization of hematopoietic progenitor cells was examined by CFU-C assays functionally (FIG. 3a). […] Secondarily, to further explore the ability of CASIN to mobilize LT-HSC which is crucial for long-term repopulation of the mobilized cells, serial transplantations were carried out, where 20 million PB from CASIN-mobilized C57Bl/6 mice was transplanted into primary recipient of NOD/SCID mice, and subsequent secondary and tertiary transplants were finished as well using prior BMs (FIG. 3c). Donor chimerisms were assessed by using H2K^b congenic marker which is positive for donors of C57Bl/6 strain and negative for recipients of NOD/SCID strain. […] Therefore, the studies show CASIN can efficiently mobilize colony-forming hematopoietic progenitors and LT-HSCs with self-renewal and multi-lineage differentiation capacity. Thirdly, to further investigate the potential of CASIN to vacate the BM niche after mobilization, six-color staining of the BM cells was performed from C57Bl/6 mice with or without CASIN treatment followed by FACS analysis. […] Therefore, a transient decrease in BM and a concomitant increase in peripheral organs of HSCs would be beneficial to facilitating the subsequent HSC transplantation.
To functionally define the LT-HSC, serial transplantations of mobilized PB from C57Bl/6 mice into sublethally irradiated NOD/SCID mice were carried out. Briefly, 2×10^7 PB cells were harvested 40 hrs after CASIN mobilization, and subsequently transplanted to a sublethally irradiated primary recipient. Chimerisms of donor-derived cells in the BM and PB were monitored over time by FACS analysis of the congenic marker H2K^b. Subsequent secondary and tertiary transplantations were performed using prior BM cells, and monitored by FACS analysis as well.

Another experiment has as its system 32D myeloid progenitors. In words: adhesion of 32D progenitors to fibronectin fragment CH296. The experiment is classed as cell-based, murine. To be noted: gradient CASIN treatments. The text has this:
To shed light on potential roles of CASIN in HSPC mobilization, the effects of CASIN on Cdc42-related cellular functions was studied, including adhesion, migration, and F-actin polymerization of progenitor cells in 32D myeloid progenitors. […] SDF-1α stimulation causes a reorganization of F-actin into a cortical ring around the cells. […] Thirdly, to gain further insight into cellular specificity and efficacy of CASIN, and also to rule out possible toxic effects by CASIN, Cdc42-involved BM progenitor cell functions were examined, including proliferation, adhesion, migration, and F-actin polymerization, in Cdc42^+/+ cells in parallel with Cdc42^−/− cells. In line with additional studies in a Cdc42 conditional knockout mouse model as described herein, Cdc42^−/− LDBM cells have increased CFU-forming progenitors compared to those of Cdc42^+/+.

This is an account of results in US9433663B2, “Mobilization of hematopoietic stem cells” (Children's Hospital Medical Center, priority 2008, dated 2016).

In the case of `OCCNC1CCCc2c1[nH]c1ccc(-c3ccccc3)cc21` (centres unmarked) [CASIN], in the experiment on N-RasMA93 cells, the “directional migration capacity of N-RasMA93 cells” value is listed as “significantly impaired”. Besides, the “apoptosis of leukemia cells” value in the experiment with leukemia cells is given as “precipitated leukemia cells to apoptosis”. The Rac1 activity entry on Rac1 is recorded as “no effects”. Further, in the experiment on Fancc−/− mice, the “mobilization of HSC/Ps (LSK cells, progenitor colonies) in Fancc−/− mice” value was “effective mobilizer”. In addition, the “PB reconstitution of donor-derived cells in the primary recipient” value in the experiment with LT-HSC (1-3 mo post transplantation of PB from CASIN-mobilized mice) is “reconstituted considerable percentages of total PB”. The “multi-lineage differentiation of engrafted donor cells” value in the experiment with LT-HSC (BM and PB of the primary recipients) is recorded as “had undergone multi-lineage differentiations”. In addition, in the experiment on LT-HSC (primary through tertiary transplantation), the “engraftment of donor-derived cells in BM” value is “engraftment of donor-derived cells was detected”. In addition, the “percentages of adherent 32D cells to CH296” value with 32D myeloid progenitors is recorded as “significantly reduced dose-dependently”.
